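Assay format: 96-well plates, 48-hour exposure. GI50 marks 50% less growth. TGI: concentration producing complete growth inhibition.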
Assays:
Experiment in all cases: NCI-60 cell line screen, 48 h; in the data active means GI50 below about 0.43 µM; inactive means the rest
SNB-19 CNS = tested on: SNB-19 CNS
SF-268 CNS = tested on: SF-268 CNS
HS 578T breast = tested on: HS 578T breast
NCI-H23 lung = tested on: NCI-H23 lung
OVCAR-8 ovarian = tested on: OVCAR-8 ovarian
MDA-MB-231 breast = tested on: MDA-MB-231 breast
HL-60(TB) leukemia = tested on: HL-60(TB) leukemia
UACC-62 melanoma = tested on: UACC-62 melanoma
M14 melanoma = tested on: M14 melanoma
ACHN renal = tested on: ACHN renal
HCT-116 colon = tested on: HCT-116 colon
T-47D breast = tested on: T-47D breast
U251 CNS = tested on: U251 CNS
RXF 393 renal = tested on: RXF 393 renal
KM12 colon = tested on: KM12 colon
UACC-257 melanoma = tested on: UACC-257 melanoma
SK-MEL-5 melanoma = tested on: SK-MEL-5 melanoma
CCRF-CEM leukemia = tested on: CCRF-CEM leukemia
PC-3 prostate = tested on: PC-3 prostate
SNB-75 CNS = tested on: SNB-75 CNS
NCI-H226 lung = tested on: NCI-H226 lung
786-0 renal = tested on: 786-0 renal
IGROV1 ovarian = tested on: IGROV1 ovarian
SF-295 CNS = tested on: SF-295 CNS
OVCAR-5 ovarian = tested on: OVCAR-5 ovarian
BT-549 breast = tested on: BT-549 breast
NCI-H522 lung = tested on: NCI-H522 lung
TK-10 renal = tested on: TK-10 renal
OVCAR-4 ovarian = tested on: OVCAR-4 ovarian
SK-MEL-28 melanoma = tested on: SK-MEL-28 melanoma
OVCAR-3 ovarian = tested on: OVCAR-3 ovarian
A549 NSCLC = tested on: A549 NSCLC
SF-539 CNS = tested on: SF-539 CNS
MCF7 breast = tested on: MCF7 breast
SW-620 colon = tested on: SW-620 colon
SR leukemia = tested on: SR leukemia
SK-OV-3 ovarian = tested on: SK-OV-3 ovarian
NCI-H460 lung = tested on: NCI-H460 lung
EKVX NSCLC = tested on: EKVX NSCLC
MOLT-4 leukemia = tested on: MOLT-4 leukemia
HOP-92 NSCLC = tested on: HOP-92 NSCLC
HCC-2998 colon = tested on: HCC-2998 colon
SN12C renal = tested on: SN12C renal
HT29 colon = tested on: HT29 colon
HOP-62 NSCLC = tested on: HOP-62 NSCLC
MALME-3M melanoma = tested on: MALME-3M melanoma
HCT-15 colon = tested on: HCT-15 colon
UO-31 renal = tested on: UO-31 renal
DU-145 prostate = tested on: DU-145 prostate
LOX IMVI melanoma = tested on: LOX IMVI melanoma
SK-MEL-2 melanoma = tested on: SK-MEL-2 melanoma
MDA-MB-435 = tested on: MDA-MB-435
NCI/ADR-RES ovarian = tested on: NCI/ADR-RES ovarian
A498 renal = tested on: A498 renal
COLO 205 colon = tested on: COLO 205 colon
K-562 leukemia = tested on: K-562 leukemia
CAKI-1 renal = tested on: CAKI-1 renal
RPMI-8226 leukemia = tested on: RPMI-8226 leukemia

COc1cc(-c2nn(-c3cccc(NC(=O)CCN4CCN(Cc5ccccc5)CC4)c3)cc2-c2ccncc2)ccc1Cl
2.21 µM: TGI (M14 melanoma)
3.02 µM: TGI (786-0 renal)
12.2 µM: TGI (TK-10 renal)
active: GI50 (HCT-116 colon) 0.406 µM | GI50 (NCI-H522 lung) 0.359 µM | GI50 (OVCAR-3 ovarian) 0.395 µM | GI50 (MCF7 breast) 0.386 µM | GI50 (SR leukemia) 0.393 µM | GI50 (NCI-H460 lung) 0.38 µM | GI50 (HT29 colon) 0.314 µM | GI50 (MDA-MB-435) 0.237 µM
9.26 µM: TGI (NCI-H23 lung)
11.6 µM: TGI (PC-3 prostate) | TGI (A549 NSCLC)
6.56 µM: TGI (UO-31 renal)
10.9 µM: TGI (DU-145 prostate)
2.58 µM: TGI (SF-539 CNS)
41 µM: TGI (OVCAR-4 ovarian)
6.71 µM: TGI (A498 renal)
4.21 µM: TGI (HL-60(TB) leukemia)
12.8 µM: TGI (ACHN renal)
2.76 µM: TGI (U251 CNS)
4.44 µM: TGI (HOP-92 NSCLC)
1.93 µM: TGI (SW-620 colon)
4.14 µM: TGI (SK-MEL-2 melanoma)
1.95 µM: TGI (SF-295 CNS)
5.8 µM: TGI (MOLT-4 leukemia)
27.6 µM: TGI (T-47D breast)
> 100 µM: TGI (CCRF-CEM leukemia) | TGI (OVCAR-5 ovarian)
2.84 µM: TGI (SK-MEL-28 melanoma)
2.28 µM: TGI (RXF 393 renal) | TGI (NCI/ADR-RES ovarian)
1.75 µM: TGI (HCT-116 colon) | TGI (NCI-H522 lung)
2.55 µM: TGI (MALME-3M melanoma)
12.4 µM: TGI (HOP-62 NSCLC)
7.88 µM: TGI (IGROV1 ovarian)
1.46 µM: TGI (NCI-H460 lung)
11.1 µM: TGI (OVCAR-8 ovarian)
20.6 µM: TGI (SK-OV-3 ovarian)
3.82 µM: TGI (HCC-2998 colon)
3.72 µM: TGI (HCT-15 colon)
0.737 µM: TGI (MDA-MB-435)
47.7 µM: TGI (NCI-H226 lung)
3.71 µM: TGI (MDA-MB-231 breast)
3.84 µM: TGI (SF-268 CNS)
inactive: GI50 (SNB-19 CNS) 4.42 µM | GI50 (SF-268 CNS) 1.05 µM | GI50 (HS 578T breast) 1.02 µM | GI50 (NCI-H23 lung) 1.73 µM | GI50 (OVCAR-8 ovarian) 2.68 µM | GI50 (MDA-MB-231 breast) 1.64 µM | GI50 (HL-60(TB) leukemia) 0.632 µM | GI50 (UACC-62 melanoma) 1.13 µM | GI50 (M14 melanoma) 0.696 µM | GI50 (ACHN renal) 1.2 µM | GI50 (T-47D breast) 2.76 µM | GI50 (U251 CNS) 0.839 µM | GI50 (RXF 393 renal) 0.705 µM | GI50 (KM12 colon) 0.583 µM | GI50 (UACC-257 melanoma) 1.7 µM | GI50 (SK-MEL-5 melanoma) 1.1 µM | GI50 (CCRF-CEM leukemia) 0.691 µM | GI50 (PC-3 prostate) 0.709 µM | GI50 (SNB-75 CNS) 1.55 µM | GI50 (NCI-H226 lung) 2.91 µM | GI50 (786-0 renal) 1.33 µM | GI50 (IGROV1 ovarian) 0.954 µM | GI50 (SF-295 CNS) 0.482 µM | GI50 (OVCAR-5 ovarian) 3.02 µM | GI50 (BT-549 breast) 2.27 µM | GI50 (TK-10 renal) 2.93 µM | GI50 (OVCAR-4 ovarian) 1.8 µM | GI50 (SK-MEL-28 melanoma) 1.33 µM | GI50 (A549 NSCLC) 1.72 µM | GI50 (SF-539 CNS) 1.14 µM | GI50 (SW-620 colon) 0.49 µM | GI50 (SK-OV-3 ovarian) 4.86 µM | GI50 (EKVX NSCLC) 1.6 µM | GI50 (MOLT-4 leukemia) 1.15 µM | GI50 (HOP-92 NSCLC) 0.79 µM | GI50 (HCC-2998 colon) 1.68 µM | GI50 (SN12C renal) 2.13 µM | GI50 (HOP-62 NSCLC) 1.38 µM | GI50 (MALME-3M melanoma) 1.01 µM | GI50 (HCT-15 colon) 0.635 µM | GI50 (UO-31 renal) 0.887 µM | GI50 (DU-145 prostate) 1.56 µM | GI50 (LOX IMVI melanoma) 0.661 µM | GI50 (SK-MEL-2 melanoma) 1.39 µM | GI50 (NCI/ADR-RES ovarian) 0.44 µM | GI50 (A498 renal) 1.41 µM
3.55 µM: TGI (UACC-257 melanoma)
20.3 µM: TGI (SN12C renal)
41.2 µM: TGI (SNB-19 CNS)
3.27 µM: TGI (MCF7 breast)
17.5 µM: TGI (EKVX NSCLC)
8.59 µM: TGI (BT-549 breast)
2.48 µM: TGI (SR leukemia)
2.31 µM: TGI (SK-MEL-5 melanoma)
8.73 µM: TGI (SNB-75 CNS)
1.98 µM: TGI (LOX IMVI melanoma)
1.77 µM: TGI (OVCAR-3 ovarian)
3.86 µM: TGI (KM12 colon)
2.7 µM: TGI (UACC-62 melanoma)
4.34 µM: TGI (HS 578T breast)
1.55 µM: TGI (HT29 colon)

c1cc(N2CCN(c3ccc(C4=NCCCN4)cc3)CC2)ccc1C1=NCCCN1
> 35.3 µM: TGI (UACC-62 melanoma)
> 20.3 µM: TGI (MDA-MB-435)
> 100 µM: TGI (SNB-19 CNS) | TGI (SF-268 CNS) | TGI (HS 578T breast) | TGI (NCI-H23 lung) | TGI (OVCAR-8 ovarian) | TGI (MDA-MB-231 breast) | TGI (M14 melanoma) | TGI (ACHN renal) | TGI (HCT-116 colon) | TGI (COLO 205 colon) | TGI (T-47D breast) | TGI (U251 CNS) | TGI (RXF 393 renal) | TGI (KM12 colon) | TGI (UACC-257 melanoma) | TGI (SK-MEL-5 melanoma) | TGI (CCRF-CEM leukemia) | TGI (PC-3 prostate) | TGI (SNB-75 CNS) | TGI (NCI-H226 lung) | TGI (786-0 renal) | TGI (IGROV1 ovarian) | TGI (SF-295 CNS) | TGI (OVCAR-5 ovarian) | TGI (BT-549 breast) | TGI (K-562 leukemia) | TGI (NCI-H522 lung) | TGI (TK-10 renal) | TGI (OVCAR-4 ovarian) | TGI (CAKI-1 renal) | TGI (SK-MEL-28 melanoma) | TGI (OVCAR-3 ovarian) | TGI (A549 NSCLC) | TGI (SF-539 CNS) | TGI (MCF7 breast) | TGI (SW-620 colon) | TGI (RPMI-8226 leukemia) | TGI (SK-OV-3 ovarian) | TGI (NCI-H460 lung) | TGI (EKVX NSCLC) | TGI (MOLT-4 leukemia) | TGI (HOP-92 NSCLC) | TGI (SN12C renal) | TGI (HT29 colon) | TGI (HOP-62 NSCLC) | TGI (MALME-3M melanoma) | TGI (HCT-15 colon) | TGI (UO-31 renal) | TGI (DU-145 prostate) | TGI (SK-MEL-2 melanoma) | TGI (NCI/ADR-RES ovarian) | TGI (A498 renal)
> 89 µM: TGI (HL-60(TB) leukemia)
inactive: GI50 (SNB-19 CNS) > 71.2 µM | GI50 (SF-268 CNS) > 75.8 µM | GI50 (HS 578T breast) > 58.7 µM | GI50 (NCI-H23 lung) 30 µM | GI50 (OVCAR-8 ovarian) > 95.7 µM | GI50 (MDA-MB-231 breast) > 62.6 µM | GI50 (M14 melanoma) > 100 µM | GI50 (ACHN renal) > 69.9 µM | GI50 (HCT-116 colon) 50.2 µM | GI50 (COLO 205 colon) > 45.6 µM | GI50 (T-47D breast) > 100 µM | GI50 (U251 CNS) > 74.6 µM | GI50 (RXF 393 renal) > 35.8 µM | GI50 (KM12 colon) > 42.1 µM | GI50 (UACC-257 melanoma) 99 µM | GI50 (SK-MEL-5 melanoma) 21.2 µM | GI50 (CCRF-CEM leukemia) > 61.4 µM | GI50 (PC-3 prostate) > 52.7 µM | GI50 (SNB-75 CNS) > 89.4 µM | GI50 (NCI-H226 lung) 59.3 µM | GI50 (786-0 renal) > 100 µM | GI50 (IGROV1 ovarian) > 100 µM | GI50 (SF-295 CNS) > 25.1 µM | GI50 (OVCAR-5 ovarian) > 87.8 µM | GI50 (BT-549 breast) > 100 µM | GI50 (K-562 leukemia) > 65.5 µM | GI50 (NCI-H522 lung) > 55.9 µM | GI50 (TK-10 renal) > 69.4 µM | GI50 (OVCAR-4 ovarian) 71.8 µM | GI50 (CAKI-1 renal) > 100 µM | GI50 (SK-MEL-28 melanoma) > 100 µM | GI50 (OVCAR-3 ovarian) > 32.2 µM | GI50 (A549 NSCLC) > 80.6 µM | GI50 (SF-539 CNS) > 74.5 µM | GI50 (MCF7 breast) > 57.5 µM | GI50 (SW-620 colon) > 62.6 µM | GI50 (RPMI-8226 leukemia) 23.8 µM | GI50 (SK-OV-3 ovarian) > 100 µM | GI50 (NCI-H460 lung) > 58.6 µM | GI50 (EKVX NSCLC) > 100 µM | GI50 (MOLT-4 leukemia) 19.4 µM | GI50 (HOP-92 NSCLC) 73 µM | GI50 (SN12C renal) > 100 µM | GI50 (HT29 colon) > 53.2 µM | GI50 (HOP-62 NSCLC) > 100 µM | GI50 (MALME-3M melanoma) > 47.6 µM | GI50 (HCT-15 colon) > 100 µM | GI50 (UO-31 renal) > 100 µM | GI50 (DU-145 prostate) > 66.6 µM | GI50 (SK-MEL-2 melanoma) > 100 µM | GI50 (NCI/ADR-RES ovarian) > 100 µM | GI50 (A498 renal) 29.2 µM
> 45.2 µM: TGI (HCC-2998 colon)
> 77.9 µM: TGI (LOX IMVI melanoma)

From PubChem BioAssay (NCI)
